Like-named read-outs stand apart in the source and are kept apart here.
Experiments:
Caco-2 cell line [1] = assay type: in vitro ADME, human
Text: (§1) The Caco-2 cell line is a well-recognized in vitro screening model, which both structurally and functionally represents the small intestinal epithelium. Caco-2 cells are derived from human colon carcinoma cells and differentiate in culture to form intestinal epithelia similar to that found in the small intestine. More specifically, Caco-2 cells form a brush border with normal enzymes, form tight junctions between cells, and acquire the barrier properties of an enterocyte sheet. […] The absorption enhancers were tested using two model drugs, sampatrilat and hydrochlorothiazide. In addition, a lactate dehydrogenase (LDH) assay was conducted after the permeation studies to evaluate the cytotoxicity of the absorption enhancers as well as to discover any violation of the integrity of the Caco-2 cells. LDH is a cytosolic enzyme that is not normally secreted outside the cell. However, it leaks into the culture medium upon damage to the cell membranes. In vitro release of LDH from cells provides an accurate measure of cell membrane integrity and cell viability. […] Wu, S.-J., et al, Pharmaceutical Res., 16(8): 1266-1272 (1999); Allen, M. J. et al., Promega Notes Magazine, Number 45, p. 7 (1994); or Ehrlich, M. et al, Current Protocols in Toxicology, John Wiley & Sons, New York (2000). LDH leakage into the apical compartment of the Caco-2 cell system was used to measure the effect, if any, of a given absorption enhancer on the viability of the Caco-2 cells.
Permeability coefficients are determined as previously reported by Yazdania et.el (Yazdanian M, Glynn, S I, Wright J L, et al. 1998. Correlating partitioning and Caco-2 permeability of structurally diverse small molecular weight compounds. Pharm Res 15:1490-1494). Briefly, drug solutions were prepared in HBSS at a known final concentration. For AP to BL experiments, the solution was placed on the apical side of the cells and samples were taken from basolateral side. In contrast, for BL to AP experiments, the solution was placed on the basolateral side of the cells and samples were taken from apical side. The samples are analyzed by an HPLC. Transport rates (J) are determined by plotting cumulative amounts of drug permeated as a function of time. Apparent permeability coefficients Pcaco-2, are determined according to the equation Pcaco-2=J/ACi where Ci is the initial concentration of the solution in donor chamber and A is the surface area of the filter.

Caco-2 cell line [2] = assay type: in vitro ADME; conditions: human, Caco-2, 1.8 mg/mL
Method: The original cell line integrity and the effect of excipients on the integrity of cell line were also tested by measuring the flux of ^14C-mannitol.

in vitro = in vitro ADME; conditions: human, Caco-2
Text: as §1
(§2) Permeability coefficients are determined as previously reported by Yazdania et.el (Yazdanian M, Glynn, S I, Wright J L, et al. 1998. Correlating partitioning and Caco-2 permeability of structurally diverse small molecular weight compounds. Pharm Res 15:1490-1494). […] The samples are analyzed by an HPLC. Transport rates (J) are determined by plotting cumulative amounts of drug permeated as a function of time. Apparent permeability coefficients Pcaco-2, are determined according to the equation Pcaco-2=J/ACi where Ci is the initial concentration of the solution in donor chamber and A is the surface area of the filter. […]

Caco-2 cells = assay: Lactate dehydrogenase (LDH) leakage assay after permeation studies; assay type: cell-based, human; conditions: relative to cells treated with Hank's balanced salt solution alone
Text: as §1

Caco-2 cell line [3] = assay: in vitro; assay type: in vitro ADME; conditions: human, Caco-2, 1 % w/v
Text: as §1, §2

Compound: O=C1CCCCCCCCCCCCCCO1 [Cyclopentadecanolide, cyclopentadecanolide]
- Potency in permeability enhancement (in words) (Caco-2 cell line [1]): low or no potency

Compound: CC1(C)[C@@H](O)CC[C@]2(C)[C@H]3C(=O)C=C4[C@@H]5C[C@@](C)(C(=O)O)CC[C@]5(C)CC[C@@]4(C)[C@]3(C)CC[C@@H]12 [Glycyrrehetinic acid, 18 β-glycyrrhetinic acid]
- Potency in permeability enhancement (in words) (Caco-2 cell line [1]; human): low or no potency

Compound: O=C(/C=C/C=C/c1ccc2c(c1)OCO2)N1CCCCC1 [Piperine, piperine]
- Potency in permeability enhancement (in words) (Caco-2 cell line [1]; human): low or no potency

Compound: CS(=O)(=O)N[C@@H](CCCCN)C(=O)NC[C@H](CC1(C(=O)N[C@@H](Cc2ccc(O)cc2)C(=O)O)CCCC1)C(=O)O [Sampatrilat]
- Permeability Coefficient, Mannitol (Caco-2 cell line [2]): 4.9 10E−7 cm/s
- Papp A→B at 1.8 mg/mL (in vitro): 0.16 ×10⁻⁶ cm/s

Compound: O=C(O)C1=C[C@@H](O)[C@@H](O)[C@H](O)C1 [Shikimic acid, shikimic acid]
- Cytotoxicity (LDH assay) (Caco-2 cells): not cytotoxic

Compound: CN(C)CC(=O)O [N,N-dimethylglycine]
- Effect on sampatrilat permeation across the Caco-2 cell line (in words) (Caco-2 cell line [3]): significantly increase
- Cytotoxicity (LDH assay) (Caco-2 cells): not cytotoxic

Compound: O=C(O)CCCCCCCCC(=O)O [Sebacic acid, sebacic acid]
- Effect on sampatrilat permeation across the Caco-2 cell line (in words) (Caco-2 cell line [3]): significantly increase
- Cytotoxicity (LDH assay) (Caco-2 cells): not cytotoxic

Compound: Vitamin E TPGS [Vitamin E TGPS]
- Potency in permeability enhancement (in words) (Caco-2 cell line [1]): low or no potency

Source: patent US20040167203A1, “Absorption enhancing agents” (priority 2003, published 2004)
